For ten compounds, TGI results are on record in PubChem BioAssay (NCI).

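Five compound concentrations were applied to cells in 96-well plates for 48 hours; endpoints were derived by simple linear interpolation of the resulting dose-response curve. At the TGI there is no net growth.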

Holding throughout (assay): NCI tumour cell line growth inhibition, 48 h
Assay [1] has as its system MCF7 breast.
The test system of assay [2] is OVCAR-5 ovarian.
For assay [3], the system named is RPMI-8226 leukemia.
In assay [4] the test system is UACC-257 melanoma.
Assay [5] has as its system SR leukemia.
Assay [6] concerns SNB-19 CNS.
The subject of assay [7] is NCI-H460 lung.
The test system of assay [8] is MDA-MB-435.
In assay [9] the test system is HS 578T breast.
Assay [10] deals with OVCAR-8 ovarian.
Assay [11] has as its system OVCAR-3 ovarian.
For assay [12], the system named is T-47D breast.
Assay [13] has as its system HOP-62 NSCLC.
The subject of assay [14] is SF-295 CNS.

With `Cc1cc2ccccc2n1CC(=O)N1CCCC1`, the TGI in assay [1], in assay [2], in assay [3], in [4], in [5] and in [6] was greater than 100 µM in each case. For the same compound, the TGI in assay [7], in assay [8], in [9], in assay [10], in [11] and in [12] was greater than 100 µM each time. In assay [13], this compound displayed a TGI greater than 100 µM.

Consider `N/N=C1/C(=N/O)CCc2nonc21`, for which the TGI in assay [1], in [2], in assay [3], in assay [4], in [5] and in assay [6] was greater than 100 µM throughout. Also, the TGI in [7], in assay [8], in [9], in assay [10], in [11] and in assay [12] was greater than 100 µM throughout. Further, the TGI in assay [13] and in assay [14] was greater than 100 µM in each case.

As to `CCOC(=O)C1=C(C)C(C(=O)OC)/C(=C/c2cccc3cccnc23)C1=O` (centres undefined), the TGI in assay [1], in assay [2], in assay [3], in assay [4], in assay [5] and in assay [6] was greater than 10 µM throughout. In addition, the TGI in [7], in assay [8], in assay [9], in assay [10], in assay [11] and in assay [12] was greater than 10 µM throughout. For the same compound, the TGI in [13] and in [14] was greater than 10 µM throughout.

On to `N#Cc1c(N2CCCC2)ncn(Cc2ccccc2)c1=S`, for which the TGI in [1], in assay [2], in assay [3], in assay [4], in assay [5] and in assay [6] was greater than 100 µM each time. Further, the TGI in assay [7], in assay [8], in assay [9], in assay [10], in assay [11] and in assay [12] was greater than 100 µM throughout. Further, the TGI in [13] and in assay [14] was greater than 100 µM in each case.

For `COCN1CCN=c2c1c1c3c(c4ccccc4n23)CCC1`, the TGI in assay [1], in assay [2], in [3], in [4], in [5] and in assay [6] was greater than 100 µM each time. In addition, the TGI in [7], in [8], in [9], in [10], in assay [11] and in assay [12] was greater than 100 µM each time. Further, the TGI in assay [13] and in [14] was greater than 100 µM in each case.

As to `O=C(CN1CCCCC1)c1ccc2c(c1)Sc1ccccc1O2`, the TGI in [1] was 30.9 µM; in assay [2], 30 µM; in assay [3], greater than 100 µM; in [4] it was 39.6 µM; in assay [5], 75.1 µM; in assay [6] it was 28.9 µM. Besides, the TGI came out at 29.5 µM in assay [7]; 33.9 µM in assay [8]; 21.6 µM in assay [9]; 33.2 µM in assay [10]; 29.6 µM in assay [11]; 47.9 µM in assay [12]. In addition, the figures for the TGI in [13] and in assay [14] were 32.5 µM and 30.9 µM, respectively.

`CCOC(=O)/C(C#N)=C/c1ccc(CO)o1`: the TGI in [1], in assay [2], in [3], in [4], in assay [5] and in assay [6] was greater than 100 µM in each case. For the same compound, the TGI in [7], in [8], in assay [9], in assay [10], in assay [11] and in assay [12] was greater than 100 µM in each case. The TGI in assay [13] and in assay [14] was greater than 100 µM in each case.

In the case of `COc1ccc(C(=C(I)c2ccccc2)c2ccc(OC)cc2)cc1`, the TGI in assay [1], in assay [2], in [3], in [4], in assay [5] and in assay [6] was greater than 100 µM each time. For the same compound, the TGI in [7], in assay [8], in assay [9], in [10], in assay [11] and in assay [12] was greater than 100 µM each time. For the same compound, the TGI in assay [13] and in assay [14] was greater than 100 µM each time.

Regarding `C=C1C(=O)O[C@H]2C/C(C)=C/CC/C(C)=C/CC[C@@](C)(O)[C@@H](I)C[C@@H]12`, the TGI in assay [1] amounted to 25.1 µM; in assay [2], 30.2 µM; in assay [3], 12.9 µM; in [4], 25.5 µM; in [5], 11.8 µM; in assay [6] it was 30 µM. The TGI worked out at 27.2 µM in assay [7]; 23.2 µM in [8]; 21.5 µM in [9]; 5.74 µM in [10]; 24.9 µM in assay [11]; 32.1 µM in assay [12]. For the same compound, the TGI in assay [13] came to 30.9 µM; in assay [14], 32.8 µM.

As to `OCC(Cn1cncn1)(c1ccc(F)cc1F)n1cncn1` (centres undefined), the TGI in assay [1], in assay [2], in [3], in [4], in [5] and in assay [6] was greater than 100 µM each time. Besides, the TGI in assay [7], in assay [8], in assay [9], in [10], in assay [11] and in assay [12] was greater than 100 µM each time. In addition, the TGI in [13] and in assay [14] was greater than 100 µM in each case.
